The values below come from ChEMBL document CHEMBL5291721, “A preclinical secondary pharmacology resource illuminates target-adverse drug reaction associations of marketed drugs” (Nat Commun, 2023).

Among the targets are Adenosine receptor A2a (Homo sapiens, UniProt P29274); Vasopressin V2 receptor (Homo sapiens, UniProt P30518); Histamine H1 receptor (Homo sapiens, UniProt P35367).
The target in experiment [1] is T1, Alpha-2A adrenergic receptor (Homo sapiens, UniProt P08913).
T1 sequence (P08913 whole entry): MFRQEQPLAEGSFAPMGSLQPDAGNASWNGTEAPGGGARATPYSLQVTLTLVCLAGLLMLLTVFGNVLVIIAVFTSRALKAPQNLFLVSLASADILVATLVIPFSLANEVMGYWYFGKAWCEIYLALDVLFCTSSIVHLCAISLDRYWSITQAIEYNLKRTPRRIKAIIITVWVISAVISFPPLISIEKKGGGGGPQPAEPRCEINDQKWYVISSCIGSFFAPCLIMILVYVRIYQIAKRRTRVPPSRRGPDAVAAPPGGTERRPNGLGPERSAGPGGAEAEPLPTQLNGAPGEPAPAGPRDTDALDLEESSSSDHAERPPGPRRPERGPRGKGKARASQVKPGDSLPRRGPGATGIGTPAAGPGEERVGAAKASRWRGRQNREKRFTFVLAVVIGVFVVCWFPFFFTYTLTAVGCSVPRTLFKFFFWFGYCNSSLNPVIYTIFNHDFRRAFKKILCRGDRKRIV
It is filed as functional, cell-based.

For experiment [2], the target named is Beta-2 adrenergic receptor (Homo sapiens, UniProt P07550).
The target in another experiment is T2, B2 bradykinin receptor (Homo sapiens, UniProt P30411).
T2 sequence (P30411 whole entry): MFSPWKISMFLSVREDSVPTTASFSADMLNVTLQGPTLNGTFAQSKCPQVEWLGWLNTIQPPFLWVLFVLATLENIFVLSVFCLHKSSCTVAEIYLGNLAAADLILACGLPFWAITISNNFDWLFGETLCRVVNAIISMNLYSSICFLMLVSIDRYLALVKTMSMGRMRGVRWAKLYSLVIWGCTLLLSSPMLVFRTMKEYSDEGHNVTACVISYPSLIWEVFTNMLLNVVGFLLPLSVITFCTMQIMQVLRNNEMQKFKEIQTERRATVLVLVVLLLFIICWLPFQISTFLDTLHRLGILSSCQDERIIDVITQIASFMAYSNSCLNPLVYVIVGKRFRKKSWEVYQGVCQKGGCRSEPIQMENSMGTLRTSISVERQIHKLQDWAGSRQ

The target in experiment [3] is T3, Muscarinic acetylcholine receptor M2 (Homo sapiens, UniProt P08172).
T3 sequence (P08172 whole entry): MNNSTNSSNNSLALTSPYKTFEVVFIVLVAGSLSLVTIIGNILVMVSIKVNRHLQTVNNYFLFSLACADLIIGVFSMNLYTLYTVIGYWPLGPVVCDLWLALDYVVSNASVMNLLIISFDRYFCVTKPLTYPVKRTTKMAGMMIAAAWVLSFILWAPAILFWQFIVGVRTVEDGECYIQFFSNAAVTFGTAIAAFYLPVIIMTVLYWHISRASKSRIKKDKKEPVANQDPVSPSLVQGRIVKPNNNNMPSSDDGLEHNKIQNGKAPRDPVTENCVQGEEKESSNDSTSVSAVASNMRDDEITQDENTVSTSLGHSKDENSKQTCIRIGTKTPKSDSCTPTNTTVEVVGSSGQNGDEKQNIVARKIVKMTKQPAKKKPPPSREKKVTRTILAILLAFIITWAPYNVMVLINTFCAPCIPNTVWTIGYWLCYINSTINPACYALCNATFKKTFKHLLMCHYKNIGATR
It counts as functional, cell-based.

The target of experiment [4] is T3, Muscarinic acetylcholine receptor M2. It counts as functional, cell-based. The source holds these as a separate data set.
The target in experiment [5] is Gamma-aminobutyric acid receptor subunit alpha-1 (Rattus norvegicus, UniProt P62813).
For experiment [6], the target named is 5-hydroxytryptamine receptor 2A (Homo sapiens, UniProt P28223). It counts as functional, cell-based.
The target in experiment [7] is 5-hydroxytryptamine receptor 2B (Homo sapiens, UniProt P41595). It is filed as functional, cell-based.
In experiment [8] the target is T4, Prostaglandin G/H synthase 1 (Rattus norvegicus, UniProt Q63921).
T4 sequence (Q63921 whole entry): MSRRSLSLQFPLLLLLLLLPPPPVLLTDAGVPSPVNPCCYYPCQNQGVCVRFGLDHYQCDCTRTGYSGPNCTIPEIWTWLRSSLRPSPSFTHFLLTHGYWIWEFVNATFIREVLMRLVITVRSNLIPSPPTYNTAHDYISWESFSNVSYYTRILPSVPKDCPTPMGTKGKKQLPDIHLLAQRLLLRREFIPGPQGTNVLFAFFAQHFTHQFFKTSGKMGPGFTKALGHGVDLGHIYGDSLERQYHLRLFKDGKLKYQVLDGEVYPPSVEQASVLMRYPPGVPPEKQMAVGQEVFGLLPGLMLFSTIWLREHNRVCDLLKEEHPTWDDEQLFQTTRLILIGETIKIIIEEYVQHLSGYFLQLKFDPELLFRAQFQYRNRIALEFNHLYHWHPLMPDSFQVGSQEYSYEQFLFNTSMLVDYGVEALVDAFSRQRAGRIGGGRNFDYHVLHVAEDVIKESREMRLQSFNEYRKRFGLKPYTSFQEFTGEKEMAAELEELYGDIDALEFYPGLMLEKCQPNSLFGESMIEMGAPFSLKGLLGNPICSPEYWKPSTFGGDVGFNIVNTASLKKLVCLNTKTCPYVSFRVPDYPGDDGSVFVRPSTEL
It is filed as functional.

The target of experiment [9] is T5, Equilibrative nucleoside transporter 1 (Homo sapiens, UniProt Q99808).
T5 sequence (Q99808 whole entry): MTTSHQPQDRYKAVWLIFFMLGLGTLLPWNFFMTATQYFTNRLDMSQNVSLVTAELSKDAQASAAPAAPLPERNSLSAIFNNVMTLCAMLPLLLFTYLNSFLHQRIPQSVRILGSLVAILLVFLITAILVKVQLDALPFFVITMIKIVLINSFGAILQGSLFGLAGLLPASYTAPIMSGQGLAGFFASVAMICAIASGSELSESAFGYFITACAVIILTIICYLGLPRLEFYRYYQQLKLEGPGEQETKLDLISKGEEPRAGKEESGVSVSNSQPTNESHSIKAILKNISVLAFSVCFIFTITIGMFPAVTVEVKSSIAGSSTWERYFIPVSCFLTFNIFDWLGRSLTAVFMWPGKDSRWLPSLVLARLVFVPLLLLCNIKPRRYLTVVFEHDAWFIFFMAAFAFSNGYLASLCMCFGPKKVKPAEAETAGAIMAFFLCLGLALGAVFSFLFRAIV

The target of experiment [10] is Sodium-dependent serotonin transporter (Homo sapiens, UniProt P31645).
Also: assay procedure not described here.

Sequence of 5-hydroxytryptamine receptor 2A (P28223 whole entry): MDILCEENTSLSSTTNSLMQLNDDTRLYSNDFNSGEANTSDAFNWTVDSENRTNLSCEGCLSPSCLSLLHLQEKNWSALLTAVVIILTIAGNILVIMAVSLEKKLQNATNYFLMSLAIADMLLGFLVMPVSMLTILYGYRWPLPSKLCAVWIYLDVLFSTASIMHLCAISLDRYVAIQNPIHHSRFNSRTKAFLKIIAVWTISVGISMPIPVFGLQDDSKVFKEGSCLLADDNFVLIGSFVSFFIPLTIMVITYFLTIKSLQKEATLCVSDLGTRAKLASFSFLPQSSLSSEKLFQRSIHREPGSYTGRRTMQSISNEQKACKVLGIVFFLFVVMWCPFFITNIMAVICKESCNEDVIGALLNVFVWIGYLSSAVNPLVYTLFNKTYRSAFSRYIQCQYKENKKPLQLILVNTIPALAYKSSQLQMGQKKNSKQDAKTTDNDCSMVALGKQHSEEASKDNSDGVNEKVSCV
Sequence of Vasopressin V2 receptor (P30518 whole entry): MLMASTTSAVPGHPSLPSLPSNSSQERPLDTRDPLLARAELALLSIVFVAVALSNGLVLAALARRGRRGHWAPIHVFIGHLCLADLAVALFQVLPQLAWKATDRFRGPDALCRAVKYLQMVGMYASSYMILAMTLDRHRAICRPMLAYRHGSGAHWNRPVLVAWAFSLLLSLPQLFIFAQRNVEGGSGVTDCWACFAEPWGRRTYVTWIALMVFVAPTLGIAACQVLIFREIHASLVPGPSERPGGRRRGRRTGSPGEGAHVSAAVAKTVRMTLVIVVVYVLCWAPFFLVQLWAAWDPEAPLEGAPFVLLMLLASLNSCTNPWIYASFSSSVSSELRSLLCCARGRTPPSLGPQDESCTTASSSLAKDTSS
Sequence of Gamma-aminobutyric acid receptor subunit alpha-1 (P62813 whole entry): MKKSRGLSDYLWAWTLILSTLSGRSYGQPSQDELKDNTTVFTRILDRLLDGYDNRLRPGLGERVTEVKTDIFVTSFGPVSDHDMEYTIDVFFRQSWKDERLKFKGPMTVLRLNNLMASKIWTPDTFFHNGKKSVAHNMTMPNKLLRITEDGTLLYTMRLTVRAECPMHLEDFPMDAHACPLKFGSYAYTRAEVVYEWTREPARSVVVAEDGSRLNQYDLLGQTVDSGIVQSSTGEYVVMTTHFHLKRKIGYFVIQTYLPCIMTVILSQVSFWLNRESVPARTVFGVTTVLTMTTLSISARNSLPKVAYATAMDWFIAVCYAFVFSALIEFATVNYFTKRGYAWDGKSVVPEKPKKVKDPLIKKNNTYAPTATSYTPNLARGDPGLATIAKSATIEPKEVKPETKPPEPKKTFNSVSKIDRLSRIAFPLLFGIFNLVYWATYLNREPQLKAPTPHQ
Sequence of Sodium-dependent serotonin transporter (P31645 whole entry): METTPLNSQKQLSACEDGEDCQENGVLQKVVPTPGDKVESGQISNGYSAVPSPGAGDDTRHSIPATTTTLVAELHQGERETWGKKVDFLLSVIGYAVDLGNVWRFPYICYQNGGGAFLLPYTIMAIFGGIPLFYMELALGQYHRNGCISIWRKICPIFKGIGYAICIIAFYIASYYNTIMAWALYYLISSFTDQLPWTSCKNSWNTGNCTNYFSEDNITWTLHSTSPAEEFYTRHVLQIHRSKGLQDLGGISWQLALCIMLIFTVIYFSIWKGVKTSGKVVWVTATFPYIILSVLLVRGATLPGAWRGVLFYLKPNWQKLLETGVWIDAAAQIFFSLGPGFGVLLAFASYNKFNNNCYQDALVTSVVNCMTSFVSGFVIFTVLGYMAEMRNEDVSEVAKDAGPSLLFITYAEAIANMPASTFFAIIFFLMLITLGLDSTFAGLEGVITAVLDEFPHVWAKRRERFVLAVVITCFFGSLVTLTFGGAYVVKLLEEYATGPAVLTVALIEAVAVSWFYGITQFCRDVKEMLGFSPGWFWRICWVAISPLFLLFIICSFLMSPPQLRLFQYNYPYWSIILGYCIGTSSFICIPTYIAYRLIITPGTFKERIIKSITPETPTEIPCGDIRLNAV
Sequence of 5-hydroxytryptamine receptor 2B (P41595 whole entry): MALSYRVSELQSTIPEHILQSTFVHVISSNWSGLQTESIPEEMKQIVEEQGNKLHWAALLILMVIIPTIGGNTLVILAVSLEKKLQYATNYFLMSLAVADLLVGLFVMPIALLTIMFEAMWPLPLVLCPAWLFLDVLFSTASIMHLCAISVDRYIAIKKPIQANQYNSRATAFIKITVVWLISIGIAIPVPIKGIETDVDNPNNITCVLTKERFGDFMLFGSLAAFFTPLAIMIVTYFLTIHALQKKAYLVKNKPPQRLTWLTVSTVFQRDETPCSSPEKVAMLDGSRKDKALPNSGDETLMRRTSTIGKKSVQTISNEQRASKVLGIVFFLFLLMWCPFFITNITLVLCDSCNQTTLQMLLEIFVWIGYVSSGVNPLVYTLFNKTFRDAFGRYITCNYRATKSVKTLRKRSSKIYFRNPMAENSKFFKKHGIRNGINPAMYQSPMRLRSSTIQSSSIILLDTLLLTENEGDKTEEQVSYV
Sequence of Histamine H1 receptor (P35367 whole entry): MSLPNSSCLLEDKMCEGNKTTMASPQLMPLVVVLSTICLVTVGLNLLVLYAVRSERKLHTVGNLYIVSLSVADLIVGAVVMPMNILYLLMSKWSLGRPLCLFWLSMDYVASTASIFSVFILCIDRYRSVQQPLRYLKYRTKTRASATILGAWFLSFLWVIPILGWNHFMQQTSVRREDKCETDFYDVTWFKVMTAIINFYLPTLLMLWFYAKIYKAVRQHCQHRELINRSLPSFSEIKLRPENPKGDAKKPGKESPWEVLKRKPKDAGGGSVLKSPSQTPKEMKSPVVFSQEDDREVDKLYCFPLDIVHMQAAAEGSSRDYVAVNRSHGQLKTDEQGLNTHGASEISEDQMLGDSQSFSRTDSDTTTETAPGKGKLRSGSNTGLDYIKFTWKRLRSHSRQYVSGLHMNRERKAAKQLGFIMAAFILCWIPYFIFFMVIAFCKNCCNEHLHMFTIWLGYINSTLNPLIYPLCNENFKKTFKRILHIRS
Sequence of Adenosine receptor A2a (P29274 whole entry): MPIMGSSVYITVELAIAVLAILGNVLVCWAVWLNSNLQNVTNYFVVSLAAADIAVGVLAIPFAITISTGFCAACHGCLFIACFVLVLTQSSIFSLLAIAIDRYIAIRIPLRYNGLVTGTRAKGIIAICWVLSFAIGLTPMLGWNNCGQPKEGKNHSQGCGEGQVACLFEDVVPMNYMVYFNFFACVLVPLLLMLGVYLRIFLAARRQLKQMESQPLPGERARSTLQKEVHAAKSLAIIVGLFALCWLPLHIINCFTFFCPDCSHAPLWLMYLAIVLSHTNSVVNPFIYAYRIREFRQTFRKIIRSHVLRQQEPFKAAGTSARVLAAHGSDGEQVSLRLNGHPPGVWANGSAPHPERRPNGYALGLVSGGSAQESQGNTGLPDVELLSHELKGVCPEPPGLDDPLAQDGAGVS
Sequence of Beta-2 adrenergic receptor (P07550 whole entry): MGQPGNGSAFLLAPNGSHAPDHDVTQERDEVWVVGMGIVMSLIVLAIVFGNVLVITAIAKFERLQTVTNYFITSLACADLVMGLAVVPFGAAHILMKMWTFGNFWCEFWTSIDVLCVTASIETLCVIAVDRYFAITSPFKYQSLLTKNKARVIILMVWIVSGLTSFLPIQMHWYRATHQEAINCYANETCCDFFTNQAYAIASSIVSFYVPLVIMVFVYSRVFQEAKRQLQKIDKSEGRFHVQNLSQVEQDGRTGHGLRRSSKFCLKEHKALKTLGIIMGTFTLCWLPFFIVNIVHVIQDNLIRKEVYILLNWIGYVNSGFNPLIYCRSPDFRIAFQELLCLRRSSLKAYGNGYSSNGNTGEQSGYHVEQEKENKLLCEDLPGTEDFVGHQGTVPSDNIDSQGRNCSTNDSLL

As for `CN1CCN(C(=O)OC2c3nccnc3C(=O)N2c2ccc(Cl)cn2)CC1` (centres undefined) [ZOPICLONE], the AC50 is over 30 µM at Adenosine receptor A2a; over 10 µM in [1]; over 10 µM in experiment [2]; over 30 µM at Vasopressin V2 receptor; over 30 µM at B2 bradykinin receptor; over 10 µM in experiment [3]. The AC50 in [4] was over 10 µM; in [5] it was over 10 µM; at Histamine H1 receptor, over 30 µM; in [6] it was over 30 µM; in [7], over 10 µM; in experiment [8] it was over 30 µM. The AC50 in experiment [9] and in [10] was over 30 µM throughout.
